In US11339442B2, “Methods of detecting insulator dysfunction and oncogene activation for screening, diagnosis and treatment of patients in need thereof” (THE GENERAL HOSPITAL CORPORATION, priority 2015, dated 2022):
Entries after “also recorded” stand apart in the source; their conditions may differ. Read-outs that look alike come from different tables or passages of the source.

What was measured:
[1] = preclinical studies; cited from earlier work
[2] = tested on: GSC6 gliomaspheres; experiment: Cell growth assay (CellTiter-Glo), GSC6 cells expressing CRISPR; type: cell-based, human; conditions: 1 μM Dasatinib or 500 nM Crenolanib
Description: Cell Growth Assay—For the cell growth assay, 2,500 dissociated viable GSC6 cells expressing CRISPR and either GFP or Insulator targeting sgRNA (see above) were plated in […], of media in an opaque-walled tissue culture 96 well plate, in 1 μM Dasatinib, 500 nM Crenolanib, or equivalent DMSO (1:10,000) as a vehicle control. Cell growth was analyzed at days 3, 5, and 7 for Dasatinib, or days 3, 7, and 10 for Crenolanib, using CellTiter-Glo® reagent (Promega™) following the manufacturer's protocol. Data was normalized across days using an ATP standard curve.

[3] = molecular target: T1, FIP1L1-PDGFRA (Homo sapiens, UniProt P16234); conditions: FIP1L1-PDGFRA versus BCR-ABL; cited from earlier work
T1 construct: the other entry of the earlier key: FIP1L1 (Q6UN15, Pre-mRNA 3'-end-processing factor FIP1)

[4] = tested on: Factor VII; conditions: LNP siRNA systems containing the lipid; cited from earlier work
[5] = tested on: advanced leukemia or MDS; conditions: cited from earlier work
[6] = tested on: MDS (RAEBT); conditions: patients with RAEBT, 3-day course 15 mg/m^2 daily; cited from earlier work
[7] = tested on: CMLs in transformation; conditions: first 13 patients, 100 mg/m^2 over 6 h every 12 h for 5 days; cited from earlier work
[8] = tested on: CTCF; experiment: CTCF occupancy ChIP qPCR at the boundary adjacent to PDGFRA, BT142 gliomaspheres; type: cell-based, human; conditions: 5 μM 5-azacytidine for 8 days
Description: Chromatin Immunoprecipitation-Chromatin Immunoprecipitation (ChIP) and sequencing (ChIP-Seq) was performed as described previously^32. Briefly, cultured cells or minced tissue was fixed in 1% formaldehyde and snap frozen in liquid nitrogen and stored at -80° C. for at least overnight. […] ChIP DNA was used to generate sequencing libraries by end repair (End-ItTM DNA repair kit, Epicentre), 3' A base overhang addition via Klenow fragment (NEB), and ligation of barcoded sequencing adapters. Barcoded fragments were amplified via PCR. […] Occupancy of the CTCF site in the boundary element adjacent to the PDGFRA locus was quantified by ChIP qPCR, using the following primers: […] CTCF peak intensity was further normalized as ratio to two invariant peaks, at PSMB1 and SPG11, using the following primers: PSMB1[NT]

[9] = tested on: acute leukemia of all cell types in relapse; conditions: end of trial, cited from earlier work
[10] = tested on: CpG in the CTCF motif of the boundary adjacent to PDGFRA; experiment: DNA methylation quantification (bisulfite sequencing), BT142 gliomaspheres treated with demethylating agent; type: cell-based, human; conditions: 5 μM 5-azacytidine for 8 days
Description: DNA Methylation Quantification-DNA methylation was analyzed in two ways. For gliomaspheres, genomic DNA was isolated via QiaAmp® DNA minikit (Qiagen®) and subjected to Bisulfite Conversion (EZ DNA Methylation GoldTM Kit-Zymo Research). Bisulfite converted DNA specific to the CTCF binding site (defined by JASPAR^40) in the boundary adjacent to PDGFRA was amplified using the following primers [NT]

[11] = tested on: PDGFRA; conditions: BT142 gliomaspheres, 5 μM 5-azacytidine for 8 days
[12] = tested on: newly diagnosed AML; conditions: cited from earlier work
[13] = preclinical in vitro studies; cited from earlier work
[14] = compared with aza; cited from earlier work
[15] = tested on: OLIG2 insulator; experiment: ChIP-qPCR for CTCF and H3K9me3 after dCas9 / dCas9-KRAB recruitment, HEK293 cells; type: cell-based
[16] = tested on: PDGFRA insulator; experiment: as above; type: cell-based
Description: Applicants performed these experiments at the PDGFRA insulator in HEK293 cells (FIG. 16A, Top). […] HEK293 cells were seeded into 100 mm cell culture dishes two days before transfection and grown to 60-70% confluency. […] of either dCas9 or dCas9-KRAB constitutive expression vector (JDS286 and Addgene Plasmid #50919 respectively) (FIG. 18) and 1 ug of guide RNA expression vector (pXPR1_noCas, Broad GPP) (FIG. 19) were mixed in 450ul OptiMEM. 27ul of FugeneHD was added and tubes were vortexed for two times one second, incubated at room temp for ten minutes and added dropwise to cell culture dishes.
Cells were harvested three days after transfection and crosslinked in 1% formaldehyde at 37 C for 10 min. ChIP-qPCR was performed as previously described. Briefly, cells were lysed on ice, sonicated in 0.3% SDS for 5 minutes total time at ˜10W power, incubated with the relevant antibody overnight at 4C with rotation after dilution to 0.1% SDS. Antibody-bound chromatin was isolated using protein G magnetic beads. Bound complex is washed several times and eluted off the beads at 65C for 1h with shaking. Eluted complex is treated with RNase for 30 min at 37C and protinase K for 3h at 63C while crosslinks are reversed concurrently. IP DNA is cleaned up using a 2× Ampure XP DNA bead cleanup as per manufacturer's instructions.

T1 sequence (P16234 593-1089 limits assumed): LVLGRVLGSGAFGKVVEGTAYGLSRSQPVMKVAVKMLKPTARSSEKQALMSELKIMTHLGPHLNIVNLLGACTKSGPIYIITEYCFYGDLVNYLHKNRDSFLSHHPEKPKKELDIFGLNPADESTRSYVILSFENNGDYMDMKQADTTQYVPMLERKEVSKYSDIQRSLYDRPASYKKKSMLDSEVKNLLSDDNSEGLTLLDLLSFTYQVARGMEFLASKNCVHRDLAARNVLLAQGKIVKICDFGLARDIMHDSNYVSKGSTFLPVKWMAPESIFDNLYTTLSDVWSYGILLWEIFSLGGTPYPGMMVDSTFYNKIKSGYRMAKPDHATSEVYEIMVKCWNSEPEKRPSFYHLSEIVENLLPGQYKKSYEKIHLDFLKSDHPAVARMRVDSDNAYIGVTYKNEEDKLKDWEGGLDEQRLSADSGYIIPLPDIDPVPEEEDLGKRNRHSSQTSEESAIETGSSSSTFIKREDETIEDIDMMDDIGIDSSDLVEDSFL

Molecule: C[C@@H](Nc1nc(N[C@H](C)C(F)(F)F)nc(-c2cccc(Cl)n2)n1)C(F)(F)F [AG-881]
- blood-brain barrier penetration [1]: fully penetrate the blood-brain barrier

Molecule: CC1(COc2ccc3c(c2)ncn3-c2ccc3cccc(N4CCC(N)CC4)c3n2)COC1 [crenolanib]
- effect on the growth advantage of insulator CRISPR gliomaspheres [2]: abrogated
- effect on the growth advantage of insulator CRISPR gliomaspheres ([2]; listed as Crenolanib): eliminated

Molecule: Cc1ccc(NC(=O)c2ccc(CN3CCN(C)CC3)cc2)cc1Nc1nccc(-c2cccnc2)n1 [Imatinib]
- IC50 lower as compared to BCR-ABL [3]: 250 fold

Molecule: 1,2-dilinoleyloxy-keto-N,N-dimethyl-3-aminopropane [DLinKDMA]
- gene silencing potency in hepatocytes in vivo (rank series) [4]: DLinKC2-DMA>DLinKDMA>DLinDMA>>DLinDAP

Molecule: Nc1ncn([C@H]2C[C@H](O)[C@@H](CO)O2)c(=O)n1 [decitabine, 5-aza-2′-deoxycytidine]
- complete response (CR) ([5]; 37 patients with AML): 14%
- partial response (PR) ([5]; 37 patients with AML): 8%
- response rate ([5]; comparison group to the higher doses / longer cycles): 45%
- patients achieving CR ([5]; five patients with CML): two
- patients achieving PR ([5]; five patients with CML): two
- response rate ([5]; higher doses (20 mg/m^2 for 10 days) and longer treatment cycles (15 mg/m2 for 20 days)): 11%
- patients in whom only one cycle of therapy was required to achieve a CR ([5]; in vivo): eight of nine
- objective responses ([5]; overall, 48 patients): 33%
- complete response (CR) ([5]; seven patients with MDS): 28.5%
- patients achieving PR ([5]; seven patients with MDS): two
- percentage of responders [6]: 70%
- adverse effect [7]: severe prolonged myelosuppression

Molecule: CCCCC/C=C\C/C=C\CCCCCCCCC1(CCCCCCCC/C=C\C/C=C\CCCCC)OCC(CCN(C)C)O1 (stereo not shown) [DLinKC2-DMA, 1,2-dilinoleyl-4-(2-dimethylaminoethyl)-[1,3]-dioxolane]
- gene silencing potency in hepatocytes in vivo (rank series) [4]: DLinKC2-DMA>DLinKDMA>DLinDMA>>DLinDAP

Molecule: Nc1ncn([C@@H]2O[C@H](CO)[C@@H](O)[C@H]2O)c(=O)n1 [5-aza, 5-azacytidine]
- increase of CTCF occupancy [8]: ~1.7 fold
- overall response rate ([9]; adult patients with acute leukemia in relapse): 9.2%
- patients achieving complete remission [9]: nine
- patients achieving partial remission [9]: two
- reduction of methylation of the CTCF motif [10]: ~2.5 fold
- down-regulation of PDGFRA expression [11]: ~5 fold
- patients with complete or partial remission ([12]; 15 adult patients, 75 mg/m^2 daily s.c. for 7 days every 4 weeks): Eight
- average number of cycles to remission ([12]; in vivo): three
- duration of response, average ([12]; patients who achieved complete remission): 8 (range, 6-13) cycles
- duration of response, average ([12]; patients who achieved partial remission): 3 (range, 2-3) cycles

Molecule: CCCCC/C=C\C/C=C\CCCCCCCCOCC(CN(C)C)OCCCCCCCC/C=C\C/C=C\CCCCC (stereo not shown) [DLinDMA, 1,2-dilinoleyloxy-3-N,N-dimethylaminopropane]
- gene silencing potency in hepatocytes in vivo (rank series) [4]: DLinKC2-DMA>DLinKDMA>DLinDMA>>DLinDAP

Molecule: Cc1cn(-c2cc(NC(=O)c3ccc(C)c(Nc4nccc(-c5cccnc5)n4)c3)cc(C(F)(F)F)c2)cn1 [nilotinib]
- potency relative to imatinib (factor) [13]: 20 to 50

Molecule: CCCCC/C=C\C/C=C\CCCCCCCC(=O)OCC(CN(C)C)OC(=O)CCCCCCC/C=C\C/C=C\CCCCC (stereo not shown) [DLinDAP, 1,2-dilineoyl-3-dimethylammonium-propane]
- gene silencing potency in hepatocytes in vivo (rank series) [4]: DLinKC2-DMA>DLinKDMA>DLinDMA>>DLinDAP

Molecule: O=c1ncccn1[C@@H]1O[C@H](CO)[C@@H](O)[C@H]1O [Zebularine]
- stability [14]: more stable than aza

Molecule: dCas9: enzymatically inactive CRISPR enzyme recruited by guide RNA to a CTCF insulator
- CTCF binding at the OLIG2 insulator [15]: can disrupt CTCF binding; also recorded: can reduce CTCF binding
- CTCF binding at the PDGFRA insulator [16]: potently disrupts CTCF binding; also recorded: can reduce CTCF binding
